Data as given in ChEMBL document CHEMBL4014296, “Constituents with potent α-glucosidase inhibitory activity from Pueraria lobata (Willd.) ohwi” (Bioorg Med Chem Lett, 2017).
pIC50: −log10 of the molar value. The source made the active and inactive calls. The rule behind the calls is not given here.

Assays:
[1] = Inhibition of alpha glucosidase (unknown origin) using alpha PNPG as substrate preincubated for 15 mins followed by substrate addition measured after 15 mins; set-up: species or system Homo sapiens; settings: for inhibition: Homo sapiens
[2] = Inhibition of alpha glucosidase (unknown origin) using alpha PNPG as substrate at 0.5 mg/mL preincubated for 15 mins followed by substrate addition measured after 15 mins relative to control; settings: Homo sapiens
[3] = Inhibition of alpha glucosidase (unknown origin) using alpha PNPG as substrate at 0.125 mg/mL preincubated for 15 mins followed by substrate addition measured after 15 mins relative to control; settings: Homo sapiens
[4] = Inhibition of alpha glucosidase (unknown origin) using alpha PNPG as substrate at 0.0625 mg/mL preincubated for 15 mins followed by substrate addition measured after 15 mins relative to control; settings: Homo sapiens
[5] = Inhibition of alpha glucosidase (unknown origin) using alpha PNPG as substrate at 0.25 mg/mL preincubated for 15 mins followed by substrate addition measured after 15 mins relative to control; settings: Homo sapiens
[6] = Solubility of the compound; type: physicochemical
Homo sapiens [7] = species on record: Homo sapiens; assay: Potency index, ratio of acarbose IC50 to compound IC50 for alpha glucosidase (unknown origin)
Homo sapiens [8] = species on record: Homo sapiens; assay: Irreversible inhibition of alpha glucosidase (unknown origin) using alpha PNPG as substrate at 0.005 mg/mL
Homo sapiens [9] = species on record: Homo sapiens; assay: Inhibition of alpha glucosidase (unknown origin) using alpha PNPG as substrate at 5 mg/mL preincubated for 15 mins followed by substrate addition measured after 15 mins relative to control
Homo sapiens [10] = species on record: Homo sapiens; assay: Inhibition of alpha glucosidase (unknown origin) using alpha PNPG as substrate at 4.88 10^-4mg/ml preincubated for 15 mins followed by substrate addition measured after 15 mins relative to control
Homo sapiens [11] = species on record: Homo sapiens; assay: Inhibition of alpha glucosidase (unknown origin) using alpha PNPG as substrate at 0.00195 mg/mL preincubated for 15 mins followed by substrate addition measured after 15 mins relative to control
Homo sapiens [12] = species on record: Homo sapiens; assay: Inhibition of alpha glucosidase (unknown origin) using alpha PNPG as substrate at 9.77 10^-4mg/ml preincubated for 15 mins followed by substrate addition measured after 15 mins relative to control
Homo sapiens [13] = species on record: Homo sapiens; assay: Inhibition of alpha glucosidase (unknown origin) using alpha PNPG as substrate at 10 mg/mL preincubated for 15 mins followed by substrate addition measured after 15 mins relative to control
Homo sapiens [14] = species on record: Homo sapiens; assay: Inhibition of alpha glucosidase (unknown origin) using alpha PNPG as substrate at 0.00391 mg/mL preincubated for 15 mins followed by substrate addition measured after 15 mins relative to control
Homo sapiens [15] = species on record: Homo sapiens; assay: Inhibition of alpha glucosidase (unknown origin) using alpha PNPG as substrate at 2.5 mg/mL preincubated for 15 mins followed by substrate addition measured after 15 mins relative to control
Homo sapiens [16] = species on record: Homo sapiens; assay: Inhibition of alpha glucosidase (unknown origin) using alpha PNPG as substrate at 1.25 mg/mL preincubated for 15 mins followed by substrate addition measured after 15 mins relative to control
Homo sapiens [17] = species on record: Homo sapiens; assay: Non-competitive inhibition of alpha glucosidase (unknown origin) using varying levels of alpha PNPG substrate at 0.01 mg/mL by Lineweaver-Burk plot analysis
Homo sapiens [18] = species on record: Homo sapiens; assay: Reversible inhibition of alpha glucosidase (unknown origin) using alpha PNPG as substrate at 0.01 mg/mL
Homo sapiens [19] = species on record: Homo sapiens; assay: Inhibition of alpha glucosidase (unknown origin) using alpha PNPG as substrate at 0.01563 mg/mL preincubated for 15 mins followed by substrate addition measured after 15 mins relative to control
Homo sapiens [20] = species on record: Homo sapiens; assay: Inhibition of alpha glucosidase (unknown origin) using alpha PNPG as substrate at 0.00781 mg/mL preincubated for 15 mins followed by substrate addition measured after 15 mins relative to control
Homo sapiens [21] = species on record: Homo sapiens; assay: Inhibition of alpha glucosidase (unknown origin) using alpha PNPG as substrate at 0.03125 mg/mL preincubated for 15 mins followed by substrate addition measured after 15 mins relative to control

| pIC50 [1] | inhibition [1] | inhibition [2] [%] | inhibition [3] [%] | inhibition [4] [%] | inhibition [5] [%] | Compound | other results |
| --- | --- | --- | --- | --- | --- | --- | --- |
| 3.42 to 3.74 | Dose-dependent effect | 86 | 49.9 | 42.5 | 60.1 | CC1(C)C=Cc2cc3c(cc2O1)O[C@@H]1c2ccc(O)cc2OC[C@@]31O |  |
|  |  |  |  |  |  | COc1ccc2c(=O)cc(C(O)Cc3ccc(O)cc3)oc2c1 (stereo not drawn) | solubility [6]: Insoluble |
| 5.75 | Dose-dependent effect |  |  |  |  | CC(C)=CCC/C(C)=C/Cc1cc2c3c(oc2cc1O)C(O)(O)c1ccc(O)cc1O3 | Ratio IC50 (Homo sapiens [7]): 1120; inhibition (Homo sapiens [8]): Active |
| 2.70 | Dose-dependent effect |  |  |  |  | C[C@H]1O[C@H](O[C@H]2[C@H](O)[C@@H](O)[C@@H](O[C@H]3[C@H](O)[C@@H](O)C(O)O[C@@H]3CO)O[C@@H]2CO)[C@H](O)[C@@H](O)[C@@H]1N[C@H]1C=C(CO)[C@@H](O)[C@H](O)[C@H]1O (stereo partly drawn) [ACARBOSE] | inhibition (Homo sapiens [9]): 58.4%; inhibition (Homo sapiens [10]): 17.7%; inhibition (Homo sapiens [11]): 85.6%; inhibition (Homo sapiens [12]): 79.7%; inhibition (Homo sapiens [13]): 82.2%; inhibition (Homo sapiens [14]): 89.5%; inhibition (Homo sapiens [15]): 51.1%; inhibition (Homo sapiens [16]): 42.2% |
| 4.64 | Dose-dependent effect |  |  |  |  | O=c1c(-c2ccc(O)cc2)coc2cc(O)ccc12 [DAIDZEIN] | Ratio IC50 (Homo sapiens [7]): 87; inhibition (Homo sapiens [17]): Active; inhibition (Homo sapiens [18]): Active; inhibition (Homo sapiens [19]): 59%; inhibition (Homo sapiens [20]): 57.1%; inhibition (Homo sapiens [14]): 34.3%; inhibition (Homo sapiens [21]): 72.8% |
| 3.60 to 3.75 | Dose-dependent effect | 84.8 | 66.8 | 41.2 | 77.3 | O=c1c(-c2ccc(O)cc2)coc2cc(O[C@@H]3O[C@H](CO)[C@@H](O)[C@H](O)[C@H]3O)ccc12 [DAIDZIN] |  |
| 3.37 | Dose-dependent effect | 74.9 | 31.6 | 29.4 | 56.3 | COc1ccc(-c2coc3cc(O[C@@H]4O[C@H](CO)[C@@H](O)[C@H](O)[C@H]4O)ccc3c2=O)cc1 [ONONIN] |  |
| 3.28 | Dose-dependent effect | 78.3 | 21.9 | 5.26 | 41.5 | O=c1c(-c2ccc(O)cc2)coc2c([C@@H]3O[C@H](CO)[C@@H](O)[C@H](O)[C@H]3O)c(O)ccc12 [PUERARIN] |  |
